The results in this text go back to patent US5962480A, “Drug for ameliorating brain diseases” (Wakunaga Pharmaceutical Co., Ltd., priority 1995, dated 1999).

Each structure is given as a SMILES string. Read-outs that look alike come from different tables or passages of the source.

The subject of one data set is hippocampus neurons. As to the kind of experiment: inhibition of reduction in survival rate of neurons, hippocampus (number of surviving cells). It counts as cell-based, rat. The note with it: for viability at 1 µg/mL / viability at 0.1 µg/mL / viability at 0.01 µg/mL / viability at 0.001 µg/mL / viability at 10 µg/mL: Rattus norvegicus, Neuron, 72 h, control 100%; for viability at 1 µg/mL: 10^-6 g/ml; for viability at 0.1 µg/mL: 10^-7 g/ml; for viability at 0.01 µg/mL: 10^-8 g/ml; for viability at 0.001 µg/mL: 10^-9 g/ml; for viability at 10 µg/mL: 10^-5 g/ml; for inhibitory effect against reduction in survival rate of neurons (in words): hippocampus cells, Example 2. The method, then: (§1) From a rat at the 18th day of pregnancy (having an 18 -day old embryo) the uterus was aseptically removed under etherification, and the fetus was obtained. The whole brain was collected from the fetus. From the brain placed in an L-15 medium were removed under a microscope the hippocampus, striate body, septum, cerebral cortex, and cerebellum. They were respectively minced with a knife. The minced tissue was treated by the addition of trypsin (0.25%) and DNase (0.01%) for 30 minutes at 37° C. to thereby isolate cells. The thus-isolated cells were suspended in Eagle's MEM medium supplemented with 10% fetal calf serum, and inoculated at a concentration of 4×10^4 cells/cm^2 into wells of a 48-well plate which had been coated with poly-L-lysin in advance. Following incubation for 24 hours, the medium was replaced by a serum-free DMEM/F-12 medium containing the drug. After three-days' additional incubation (six days for the striate body), the cells were fixed, stained, and the number of surviving cells in each well was counted. Compounds (2) through (14) were tested analogously to Example 1 using hippocampus cells prepared in a manner similar to Example 1. As structural comparative compounds, the following compounds were used: 4H-pyran-4-one (hereinafter referred as Compound (15) and 3-methoxy-6 -hydroxymethyl-4H-pyran-4-one (hereinafter referred to as Compound (16)).

A further data set deals with septum neurons. Put plainly: inhibition of reduction in survival rate of neurons, septum (number of surviving cells). Type of data set: cell-based. The note with it: Rattus norvegicus, Neuron, 72 h, 3 days, control 100%. As for the experimental part:
as §1, with “counted.” for “counted. Compounds (2) through (14) were tested analogously to Example 1 using hippocampus cells prepared in a manner similar to Example 1. As structural comparative compounds, the following compounds were used: 4H-pyran-4-one (hereinafter referred as Compound (15) and 3-methoxy-6 -hydroxymethyl-4H-pyran-4-one (hereinafter referred to as Compound (16)).”

In another data set the test system is cerebral cortex neurons. As to the kind of experiment: inhibition of reduction in survival rate of neurons, cerebral cortex (number of surviving cells). The note with it: Rattus norvegicus, Cerebral cortex neuron, 72 h, 3 days, control 100%. Type of data set: cell-based. As for the experimental part: as §1, with “counted.” for “counted. Compounds (2) through (14) were tested analogously to Example 1 using hippocampus cells prepared in a manner similar to Example 1. As structural comparative compounds, the following compounds were used: 4H-pyran-4-one (hereinafter referred as Compound (15) and 3-methoxy-6 -hydroxymethyl-4H-pyran-4-one (hereinafter referred to as Compound (16)).”

For the next data set, the system named is striate body neurons. Put plainly: inhibition of reduction in survival rate of neurons, striate body (number of surviving cells). The settings on record: Rattus norvegicus, Neuron, 144 h, 6 days, control 100%. Type of data set: cell-based. The method, then:
as §1, with “counted.” for “counted. Compounds (2) through (14) were tested analogously to Example 1 using hippocampus cells prepared in a manner similar to Example 1. As structural comparative compounds, the following compounds were used: 4H-pyran-4-one (hereinafter referred as Compound (15) and 3-methoxy-6 -hydroxymethyl-4H-pyran-4-one (hereinafter referred to as Compound (16)).”

For the next data set, the system named is cerebellum neurons. As to the kind of experiment: inhibition of reduction in survival rate of neurons, cerebellum (number of surviving cells). It counts as cell-based. The settings on record: Rattus norvegicus, Neuron, 72 h, 3 days, control 100%. The method, then:
as §1, with “counted.” for “counted. Compounds (2) through (14) were tested analogously to Example 1 using hippocampus cells prepared in a manner similar to Example 1. As structural comparative compounds, the following compounds were used: 4H-pyran-4-one (hereinafter referred as Compound (15) and 3-methoxy-6 -hydroxymethyl-4H-pyran-4-one (hereinafter referred to as Compound (16)).”

A further data set concerns brain neurons. As to the kind of experiment: inhibition of reduction of brain neurons (overall statement). The settings on record: concentration-dependent; activity of control: 100%. It counts as cell-based, rat. The method, then:
as §1, with “counted.” for “counted. Compounds (2) through (14) were tested analogously to Example 1 using hippocampus cells prepared in a manner similar to Example 1. As structural comparative compounds, the following compounds were used: 4H-pyran-4-one (hereinafter referred as Compound (15) and 3-methoxy-6 -hydroxymethyl-4H-pyran-4-one (hereinafter referred to as Compound (16)).”

Data set [1] has as its system hippocampus cells (neurites). As to the kind of experiment: branching promotion effect on neurites. Type of data set: cell-based, rat. The note with it: one and two days after addition of the drug. As for the experimental part:
The hippocampus cells obtained in a manner similar to that in Example 1 were incubated for 24 hours in a medium containing fetal calf serum, then for a further 24 hours in a serum-free medium. Subsequently, the drug was added. When one day and two days elapsed after addition of the drug, photographs were taken of the same cells. The number of branches from the longest neurite was counted.

A short description of data set [2]: oral toxicity (LD50), rats. The settings on record: rat, in vivo, read-out: 50% lethal death (LD50).
The nature of data set [3]: oral toxicity (LD50), mice. The settings on record: mouse, in vivo, read-out: 50% lethal death (LD50).
[4] abbreviates: 3 days, read-out: Number of surviving cells, Hippocampus.
Setting [5] is: read-out: Inhibitory effect against reduction in survival rate of neurons (survival rate class).

As for `CCCCCc1oc(C)c(OC)c(=O)c1O` [Compound (1), 3-Hydroxy-6-methyl-5-methoxy-2-pentyl-4H-pyran-4-one], the viability at 1 µg/mL in the data set on hippocampus neurons (setting [4]) was 57.8%; with septum neurons (10^-6 g/ml) it was 71.6%; in the data set with cerebral cortex neurons (10^-6 g/ml), 90.2%; in the data set with striate body neurons (10^-6 g/ml), 83.8%; with cerebellum neurons (10^-6 g/ml) it was 65.3%. Also, the viability at 0.1 µg/mL amounted to 146% in the data set on hippocampus neurons (setting [4]); 157% with septum neurons (10^-7 g/ml); 125% in the data set on cerebral cortex neurons (10^-7 g/ml); 160% in the data set with striate body neurons (10^-7 g/ml); 147% in the data set on cerebellum neurons (10^-7 g/ml). In addition, the viability at 0.01 µg/mL in the data set with hippocampus neurons (setting [4]) is 134%; in the data set with septum neurons (10^-8 g/ml) it was 150%; in the data set on cerebral cortex neurons (10^-8 g/ml), 107%; in the data set on striate body neurons (10^-8 g/ml), 139%; with cerebellum neurons (10^-8 g/ml), 136%. For the same compound, the viability at 0.001 µg/mL was determined as 109% with hippocampus neurons (setting [4]); 128% in the data set on septum neurons (10^-9 g/ml); 104% with cerebral cortex neurons (10^-9 g/ml); 126% in the data set with striate body neurons (10^-9 g/ml); 137% in the data set on cerebellum neurons (10^-9 g/ml). For the same compound, in the data set with brain neurons, the “concentration range of effect of inhibiting reduction of neurons” value is 1 to 100 ng/mL. The “branching promotion effect on neurites (in words)” value in data set [1] is given as “confirmed to have a branching promotion effect on neurites”. Further, the LD50 in [2] and in data set [3] was no less than 1000 mg/kg in each case.
In the case of `Cc1cc(=O)c(O)c(C)o1` [Compound (3), 3-Hydroxy-2,6-dimethyl-4H-pyran-4-one], in the data set with hippocampus neurons (setting [5]), the viability at 10 µg/mL lay within 110 to 130%, the viability at 1 µg/mL fell in the range of 130 to 150%, the viability at 0.1 µg/mL lay in the range of 130 to 150% and the viability at 0.01 µg/mL was 110 to 130%. The viability at 0.001 µg/mL in the data set on hippocampus neurons (setting [5]) lay within 90 to 110%. Moreover, in data set [1], the “branching promotion effect on neurites (in words)” value is listed as “confirmed to have a branching promotion effect on neurites”.
Regarding `O=c1ccocc1` [Compound (15), 4H-pyran-4-one, reference compound], in the data set with hippocampus neurons (setting [5]), the viability at 10 µg/mL lay in the range of 90 to 110%, the viability at 1 µg/mL lay in the range of 90 to 110%, the viability at 0.1 µg/mL was 90 to 110% and the viability at 0.01 µg/mL lay within 90 to 110%. Further, the viability at 0.001 µg/mL in the data set with hippocampus neurons (setting [5]) fell in the range of 90 to 110%. In addition, the “inhibitory effect against reduction in survival rate of neurons (in words)” value in the data set with hippocampus neurons was “no inhibitory effect”.
Take `COc1coc(CO)cc1=O` [Compound (16), 3-methoxy-6-hydroxymethyl-4H-pyran-4-one, reference compound]: in the data set on hippocampus neurons (setting [5]), the viability at 10 µg/mL was 90 to 110%, the viability at 1 µg/mL lay in the range of 90 to 110%, the viability at 0.1 µg/mL lay in the range of 90 to 110% and the viability at 0.01 µg/mL is 90 to 110%. The viability at 0.001 µg/mL with hippocampus neurons (setting [5]) lay in the range of 90 to 110%. Also, the “inhibitory effect against reduction in survival rate of neurons (in words)” value with hippocampus neurons is “no inhibitory effect”.

Usually LD50 stands for the dose at which mortality reaches 50%.
